According to patent publication US20220397566A1, “GAMMA-SECRETASE STABILIZING COMPOUND SCREENING ASSAY” (VIB VZW, priority 2019, published 2022):

Assays:
FAD-PSEN1 mutants = test: Late endosomal localisation of FAD-PSEN1 mutants in PSEN1 KO MEFs; type: cell-based, mouse; conditions: DAPT 1 μM 16 h
Procedure: FIG. 6. Familial Alzheimer's disease (FAD) mutations in PSEN1 differently affect g-secretase localization in late endosomes. Ratio of GFP intensity in LAMP1 endosomes over total GFP signal in PSEN1 KO MEFs stably rescued with GFP-PSEN1 wild-type (Wt) or the indicated FAD-PSEN1 mutants and treated with DMSO or DAPT (1 μM) 16 h.
As these mutations were reported to have an early onset and high thermo-instability (reflecting lowest processivity), we extended this experiment to other mutations reported in Szaruga et al (2017 Cell 170). In line with the above, the PSEN1-P88L mutation translocated PSEN1/g-secretase to late endosomes as well. […] These mutations have a higher onset and affect the Ab processivity less as compared to L166P, G384A and P88L mutants.

PSEN2/g-secretase = target: T1, PSEN2/g-secretase (Homo sapiens, UniProt P49810); test: Localisation of GFP-PSEN2/g-secretase in LAMP1-positive organelles (confocal); type: cell-based, mouse; conditions: 1 μM, 16 hrs; dKO MEFs rescued with EGFP-PSEN2
T1 construct: expressed in transfected cells
Procedure: (§1) We now questioned whether g-secretase inhibitors would affect subcellular distribution of g-secretase complexes as well. We made use of mouse embryonic fibroblasts (MEFs) in which both PSEN1 an PSEN2 are knocked-out (dKO), rescued with either EGFP-PSEN1 or EGFP-PSEN2 (FIG. 1A). […] The dKO MEFs were then incubated overnight with N—[N-(3,5-difluorophenacetyl)-L-alanyl]-S-phenylglycine t-butyl ester (DAPT). DAPT is a non-transition state analogue (TSA) g-secretase inhibitor that is widely used (Dovey et al 2001 J Neurochem 76).
All culture media and sera are from ThermoFisher Scientific. Mouse embryonic fibroblasts (MEFs), PSEN1 knock-out (1 ko), PSEN1 and PSEN2 double knock-out (dKO, Herreman et al 2000 Nat Cell Biol 2), rescued 1 ko and dKO cell lines cells were routinely grown in Dulbecco's modified Eagle's medium (DMEM/F12) supplemented with 10% fetal calf serum (FCS). All cell lines were maintained in a humidified chamber with 5% CO2 at 37° C. […]
Cells were plated on glass coverslips, transfected 24 h later and processed for indirect immunolabeling the next day (Sannerud et al 2011 Proc Natl Acad Sci USA 108). […] ImageJ software with the plugin JACoP (Bolte and Cordelieres 2006 J Microsc 224) was used for signal overlap quantification (Mander's coefficient). Images were acquired with identical settings and regions of interest (ROI) covering whole cells were used for quantification.

[1] = target: T2, PSEN1/g-secretase complex (Homo sapiens, UniProt P49768); test: Relocation of GFP-PSEN1/g-secretase to LAMP1-positive late endosomes (confocal immunofluorescence); type: cell-based, mouse
T2 construct: expressed in transfected cells

[2] = target: T2, PSEN1/g-secretase complex; test: as above; type: cell-based, mouse; remark: listed apart in the source
Procedure: as §1
All culture media and sera are from ThermoFisher Scientific. Mouse embryonic fibroblasts (MEFs), PSEN1 knock-out (1 ko), PSEN1 and PSEN2 double knock-out (dKO, Herreman et al 2000 Nat Cell Biol 2), rescued 1 ko and dKO cell lines cells were routinely grown in Dulbecco's modified Eagle's medium (DMEM/F12) supplemented with 10% fetal calf serum (FCS). All cell lines were maintained in a humidified chamber with 5% CO2 at 37° C. Primary hippocampal neuron cultures are derived from E18 rat embryos (Esselens et al 2004 J Cell Biol 166). Stable rescued 1 ko and dKO cell lines were generated using replication-defective recombinant retroviral system (pMCSV vector, Clontech) expressing the gene of interest.
Cells were plated on glass coverslips, transfected 24 h later and processed for indirect immunolabeling the next day (Sannerud et al 2011 Proc Natl Acad Sci USA 108). Images were captured on a confocal microscope (Leica TCS SP5 II, Leica Microsystems) connected to an upright microscope, using an oil-immersion plan Apo 60× A/1.40 NA objective lens. Image acquisition was performed with LAS (Leica Microsystems). Images were further processed with ImageJ and PhotoshopCS6 (Adobe, Calif.). ImageJ software with the plugin JACoP (Bolte and Cordelieres 2006 J Microsc 224) was used for signal overlap quantification (Mander's coefficient). Images were acquired with identical settings and regions of interest (ROI) covering whole cells were used for quantification.

PSEN1/g-secretase = PSEN1/g-secretase (Homo sapiens, UniProt P49768); test: GFP-PSEN1 relocation in primary hippocampal neurons; type: cell-based; parameters: expressed in transfected cells; host or cells: rat (E18) primary hippocampal neurons, lentiviral pFUGW-GFP-PSEN1; conditions: rat primary hippocampal neurons, 1 μM
Procedure: FIG. 1. DAPT relocates PSEN1/g-secretase to late endosomes. (A) PSEN1 and PSEN2 double knock-out (dKO) MEFs stably expressing GFP-PSEN1 or GFP-PSEN2 were treated for 16 h with 1 μM of DAPT or DMSO and immunostained for GFP (green) and LAMP1 antibodies (red). (B) Quantification of (A) using Mander's coefficient. (C) Ratio of GFP intensity in LAMP1-positive structures over total GFP intensity in the cell, normalized to DMSO-treated cells (control=Ctrl). (D) Quantification of size area of LAMP1-positive organelles per cell showing no significant differences between DMSO and DAPT-treated cells. (E) PSEN1, PSEN2 and NCT triple KO MEFs stably rescued with NCT-SNAP and GFP-PSEN1 were treated for 16 h with 1 μM of DAPT or DMSO (Ctrl). Prior to fixation, SNAP-Cell 647-SiR was added to label NCT-SNAP (red for Merge2). After 1 h, cells were fixed and immunostained for GFP (green) and LAMP1 (red for Merge2). Two merged images are shown. […] All graphs show the median with 95% confidence interval (n=3, ˜20 cells per experiments; p-values are calculated using Mann-Whitney test; ns means non-significant). […]
The plasmids pSG5-C99-3×FLAG and pMSCV-GFP-PSEN1-wt and FADs, pFUGW-GFP-PSEN1 were previously described (Sannerud et al 2016 Cell 166). […] Primary hippocampal neurons were infected at 3 to 4 days in vitro (DIV) and analyzed at 7 DIV.

- EGFP-PSEN2 in LAMP1-positive organelles, Mander's coefficient (PSEN2/g-secretase): no additional effect
- ratio of EGFP-PSEN2 fluorescence within LAMP1-positive compartments over total (PSEN2/g-secretase): remained unaltered
- relocation of EGFP-PSEN1 to LAMP1-positive organelles ([1]; single PSEN1 KO MEFs stably transduced with EGFP-PSEN1, data not shown): Identical observations
- EGFP-PSEN1 in LAMP1-positive organelles, Mander's coefficient ([2]; 1 μM, 16 hrs, PSEN1/PSEN2 dKO MEFs rescued with EGFP-PSEN1): threefold increase
- increase in ratio of EGFP-PSEN1 fluorescence within LAMP1-positive compartments over total EGFP-PSEN1 ([2]; 1 μM, 16 hrs, dKO MEFs rescued with EGFP-PSEN1): 50%
- reversibility of late endosomal relocation after wash-out ([2]; DAPT-containing medium replaced with fresh medium, 16 hrs): fully reversible
- dose dependence of PSEN1/g-secretase relocation ([2]; between 1 and 1000 nM): clear dose response
- fold increase by which PSEN1/g-secretase relocates ([2]; dose response, normalised to DMSO): almost two-fold
- relocation of GFP-PSEN1 (PSEN1/g-secretase): Identical observations
Compound: C[C@H](NC(=O)Cc1cc(F)cc(F)c1)C(=O)N[C@H](C(=O)OC(C)(C)C)c1ccccc1 [DAPT, N—[N-(3,5-difluorophenacetyl)-L-alanyl]-S-phenylglycine t-butyl ester]
- late endosomal localization of mutant PSEN1 (FAD-PSEN1 mutants; L166P, G384A, P88L mutants): did not further increase late endosomal localization
- shift of PSEN1/g-secretase to late endosomes (FAD-PSEN1 mutants; Y115H and E280A mutants): did not shift PSEN1/g-secretase to late endosomes, unless treated with DAPT
- co-distribution of EGFP-PSEN1 with anti-LBPA immunoreactivity (late endosomes) ([1]; PSEN1 KO MEFs rescued with GFP-PSEN1, 1 μM, 16 h): even more strongly co-distributed with anti-LBPA immunoreactivity
- co-accumulation of EGFP-PSEN1 and NCT-SNAP in LAMP1-positive organelles ([1]; triple KO MEFs rescued with EGFP-PSEN1 and NCT-SNAP, 1 μM, 16 h): co-accumulate in LAMP1-positive organelles
- translocation of the PSEN1/g-secretase complex to the late endosomes (Rel MFI) ([2]; 1 μM, FIG. 8): induce a translocation of the PSEN1/g-secretase complex to the late endosomes
